Measured values reported in patent US6372777B1, “Cyclic AMP-specific phosphodiesterase inhibitors” (ICOS Corporation, priority 1999, dated 2002).

Legend:
[1] = tested on: recombinant human PDE4; settings: reported value; read-out: IC50 with respect to recombinant human PDE4; cited from earlier work
[2] = tested on: serum TNFα; assay: Combined mouse endotoxin-stimulated TNFα release assay (serum TNFα); assay type: in vivo, female Balb/c mice; settings: LPS mouse model
Protocol: The purpose of this study was to determine the efficacy of PDE4 inhibitors in vivo in an LPS mouse model together with a determination with respect to central nervous system (CNS) side-effects manifested by a decrease in spontaneous mobility. The test animals were female Balb/c mice, having an average weight of about 20 g. The PDE4 inhibitors, formulated in 30% Cremophor® EL, were administered via intraperitoneal (i.p.) injections at doses of 0.1, 1.0, 10.0, and 100 mg/kg. Individual dose volumes (about […]) were adjusted based on the body weights measured. One hour later, 5 mg/kg LPS in a final volume of 200 μL was injected via the tail vein to each animal. Ninety minutes following the LPS treatment, the animals were bled and serum samples were collected before being stored at −70° C. until assayed. For efficacy determination, the serum samples were diluted two-fold and TNFα levels were determined using the CYTOSCREEN® Immunoassay Kit (Biosource International) The data were averaged between triplicate sample subjects for each of the tested compounds.

[3] = tested on: spontaneous mobility; assay: Locomotor activity / sedative side-effect visual scoring; assay type: in vivo, female Balb/c mice; set-up: key: Vehicle control animals were rated a single “+”; animals that were effectively immobilized and stretched out on the bottom of the cage with little detectable movement were rated as “++++.”; settings: 10 mg/kg i.p., mice
Protocol: The purpose of this study was to determine the efficacy of PDE4 inhibitors in vivo in an LPS mouse model together with a determination with respect to central nervous system (CNS) side-effects manifested by a decrease in spontaneous mobility.
The test animals were female Balb/c mice, having an average weight of about 20 g. The PDE4 inhibitors, formulated in 30% Cremophor® EL, were administered via intraperitoneal (i.p.) injections at doses of 0.1, 1.0, 10.0, and 100 mg/kg. Individual dose volumes (about […]) were adjusted based on the body weights measured. One hour later, 5 mg/kg LPS in a final volume of 200 μL was injected via the tail vein to each animal. Ninety minutes following the LPS treatment, the animals were bled and serum samples were collected before being stored at −70° C. until assayed.
For side-effect profiling, a subjective visual scoring system was utilized at 5 min and 20min after administration of PDE4 inhibitors. […] In this instance, the subjects could be monitored continuously over pre-set intervals.
Movement of the X-Y plane, or rearing up on the hind legs, was quantified by counting the number of “light-beam” crosses per unit of time. […] The quantitative scoring correlated well with the subjective measurements described above.

[4] = target: T1, human recombinant PDE4 (Homo sapiens, UniProt Q07343); assay: Inhibition of human recombinant PDE4 (IC50); assay type: biochemical
T1 construct: made in house; host or cells: Saccharomyces cerevisiae BJ2-54 (strain YI23 harboring HDUN2.32, if PDE4B)

[5] = target: T2, human recombinant PDE4B (Homo sapiens, UniProt Q07343); assay: PDE inhibition, PDE4B; assay type: biochemical
T2 construct: made in house; host or cells: Saccharomyces cerevisiae, strain YI23 harboring HDUN2.32

[6] = target: T3, PDE1A (Homo sapiens, UniProt P54750); assay: PDE inhibition, PDE1A; assay type: biochemical
T3 construct: contained the complete open reading frame of PDE1A3; made in house; host or cells: baculovirus-infected Sf9 cells

[7] = target: T4, PDE1B (Homo sapiens, UniProt Q01064); assay: PDE inhibition, PDE1B; assay type: biochemical
T4 construct: made in house; host or cells: Saccharomyces cerevisiae BJ2-54

[8] = target: T5, PDE1C (Homo sapiens, UniProt Q14123); assay: PDE inhibition, PDE1C; assay type: biochemical
T5 construct: Plasmid Hcam3aBB contained the complete open reading frame of PDE1C3; made in house; host or cells: baculovirus-infected Sf9 cells

[9] = target: T6, PDE2 (Homo sapiens, UniProt O00408); assay: PDE inhibition, PDE2; assay type: biochemical
T6 construct: made in house; host or cells: Saccharomyces cerevisiae, strain YI34

[10] = target: T7, PDE3A (Homo sapiens, UniProt Q14432); assay: PDE inhibition, PDE3A; assay type: biochemical
T7 construct: Plasmid pBB-PDE3A contained the complete open reading frame of PDE3A; made in house; host or cells: baculovirus-infected Sf9 cells (washed 100,000 x g pellet, not purified)

[11] = target: T8, PDE5 (Homo sapiens, UniProt O76074); assay: PDE inhibition, PDE5; assay type: biochemical
T8 construct: made in house; host or cells: Saccharomyces cerevisiae BJ2-54

[12] = target: T9, PDE7 (Homo sapiens, UniProt Q13946); assay: PDE inhibition, PDE7; assay type: biochemical
T9 construct: made in house; host or cells: Saccharomyces cerevisiae BJ2-54

[13] = tested on: human peripheral blood lymphocytes; assay: Lipopolysaccharide-stimulated TNFα release from human peripheral blood lymphocytes; assay type: cell-based; settings: for EC50: Homo sapiens, Lymphocyte, LPS-stimulated TNFα release, read-out: PBL/TNFα EC50
Protocol: The compounds of structural formulae (I) and (II) also were tested for an ability to reduce TNFα secretion in human peripheral blood lymphocytes. The ability to reduce TNFα secretion is related to the EC50 values (i.e., the effective concentration of the compound capable of inhibiting 50% of the total TNFα). To assess the ability of a compound to reduce TNFα secretion in human peripheral blood lymphocytes (PBL), the following tests were performed. […] Heparinized blood (approximately 30 mL) drawn from human volunteers was mixed 1:1 with Dulbecco's modified phosphate-buffered saline. This mixture was mixed 1:1 with HISTOPAQUE and centrifuged at 1,500 rpm at room temperature without braking in the swinging bucket of a Beckman model TJ6 centrifuge. Erythrocytes were centrifuged to the bottom of the tubes, and serum remained at the surface of the tubes. A layer containing lymphocytes sedimented between the serum and HISTOPAQUE® layers, and was removed by aspiration to a fresh tube. The cells were quantified and adjusted to 3×10^6 cells/mL and a 100 μL aliquot is placed into the wells of a 96 well plate. Test compounds and RPMI media (Gibco/BRL Life Sciences) are added to each of the wells 15 minutes prior to addition of bacterial LPS ([…]). The mixture was allowed to incubate for 20 hours at 37° C. in a humidified chamber. The cells then were separated by centrifuging at 800 rpm for 5 minutes at room temperature. An aliquot of 80 µL of supernatant was transferred to a new plate or determination of TNFα concentration. TNFα protein in the cell supernatant fluids was measured using a commercially available enzyme-linked immunosorbent assay (ELISA) (CYTOSCREEN® Immunoassay Kit from Biosource International). The cell-based assay provided the following results for various compounds of the present invention. The EC50 values (i.e., effective concentration of the compound capable of inhibiting 50% of the total TNFα ) illustrate the ability of the present compounds to inhibit LPS-stimulated TNFα release from human PBL.

T1 sequence (Q07343 1-564 isoform Q07343-2): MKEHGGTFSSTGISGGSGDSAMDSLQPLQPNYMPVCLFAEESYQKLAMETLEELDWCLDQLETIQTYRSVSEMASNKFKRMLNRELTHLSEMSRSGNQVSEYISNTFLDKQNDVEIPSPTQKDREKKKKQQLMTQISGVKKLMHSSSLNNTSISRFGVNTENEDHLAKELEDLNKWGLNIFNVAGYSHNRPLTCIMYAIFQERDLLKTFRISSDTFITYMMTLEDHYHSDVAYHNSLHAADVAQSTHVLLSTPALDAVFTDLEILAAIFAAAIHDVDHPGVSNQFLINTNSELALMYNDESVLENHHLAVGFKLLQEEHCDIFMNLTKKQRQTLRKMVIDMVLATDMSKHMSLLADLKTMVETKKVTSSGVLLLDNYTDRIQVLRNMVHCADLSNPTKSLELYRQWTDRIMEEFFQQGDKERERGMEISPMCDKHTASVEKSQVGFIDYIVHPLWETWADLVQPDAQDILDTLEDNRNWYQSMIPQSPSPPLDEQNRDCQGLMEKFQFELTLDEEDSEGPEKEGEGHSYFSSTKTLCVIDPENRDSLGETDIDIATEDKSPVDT
T9 sequence (Q13946 whole entry): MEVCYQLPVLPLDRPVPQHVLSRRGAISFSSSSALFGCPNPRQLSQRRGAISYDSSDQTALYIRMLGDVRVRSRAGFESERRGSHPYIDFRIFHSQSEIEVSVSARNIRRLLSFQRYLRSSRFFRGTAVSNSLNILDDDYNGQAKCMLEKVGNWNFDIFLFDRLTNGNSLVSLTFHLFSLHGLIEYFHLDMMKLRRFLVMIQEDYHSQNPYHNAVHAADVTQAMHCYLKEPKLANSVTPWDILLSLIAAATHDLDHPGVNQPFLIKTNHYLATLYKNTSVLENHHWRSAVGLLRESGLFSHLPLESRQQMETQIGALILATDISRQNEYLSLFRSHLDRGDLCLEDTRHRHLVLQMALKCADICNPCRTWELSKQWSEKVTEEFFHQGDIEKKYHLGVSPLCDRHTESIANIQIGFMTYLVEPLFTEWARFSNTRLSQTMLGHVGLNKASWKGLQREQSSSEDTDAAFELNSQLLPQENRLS
T2 sequence (Q07343 whole entry): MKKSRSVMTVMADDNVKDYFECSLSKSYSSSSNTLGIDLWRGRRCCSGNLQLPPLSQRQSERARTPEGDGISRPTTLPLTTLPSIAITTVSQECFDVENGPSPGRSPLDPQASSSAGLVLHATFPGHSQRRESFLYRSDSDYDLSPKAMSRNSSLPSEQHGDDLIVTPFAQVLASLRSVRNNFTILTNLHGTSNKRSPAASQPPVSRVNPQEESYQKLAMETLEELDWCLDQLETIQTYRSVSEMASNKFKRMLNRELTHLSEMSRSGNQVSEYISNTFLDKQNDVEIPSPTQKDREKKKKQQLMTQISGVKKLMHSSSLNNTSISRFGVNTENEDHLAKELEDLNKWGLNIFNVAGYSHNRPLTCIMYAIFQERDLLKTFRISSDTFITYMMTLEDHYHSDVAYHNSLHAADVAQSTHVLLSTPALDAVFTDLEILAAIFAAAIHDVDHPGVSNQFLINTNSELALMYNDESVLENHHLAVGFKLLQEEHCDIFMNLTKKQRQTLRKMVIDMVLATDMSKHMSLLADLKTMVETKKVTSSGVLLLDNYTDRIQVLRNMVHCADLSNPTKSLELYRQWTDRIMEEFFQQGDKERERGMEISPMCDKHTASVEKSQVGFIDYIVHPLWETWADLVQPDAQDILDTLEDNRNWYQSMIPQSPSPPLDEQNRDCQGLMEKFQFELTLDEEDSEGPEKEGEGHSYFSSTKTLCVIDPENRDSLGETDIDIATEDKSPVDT
T6 sequence (O00408 whole entry): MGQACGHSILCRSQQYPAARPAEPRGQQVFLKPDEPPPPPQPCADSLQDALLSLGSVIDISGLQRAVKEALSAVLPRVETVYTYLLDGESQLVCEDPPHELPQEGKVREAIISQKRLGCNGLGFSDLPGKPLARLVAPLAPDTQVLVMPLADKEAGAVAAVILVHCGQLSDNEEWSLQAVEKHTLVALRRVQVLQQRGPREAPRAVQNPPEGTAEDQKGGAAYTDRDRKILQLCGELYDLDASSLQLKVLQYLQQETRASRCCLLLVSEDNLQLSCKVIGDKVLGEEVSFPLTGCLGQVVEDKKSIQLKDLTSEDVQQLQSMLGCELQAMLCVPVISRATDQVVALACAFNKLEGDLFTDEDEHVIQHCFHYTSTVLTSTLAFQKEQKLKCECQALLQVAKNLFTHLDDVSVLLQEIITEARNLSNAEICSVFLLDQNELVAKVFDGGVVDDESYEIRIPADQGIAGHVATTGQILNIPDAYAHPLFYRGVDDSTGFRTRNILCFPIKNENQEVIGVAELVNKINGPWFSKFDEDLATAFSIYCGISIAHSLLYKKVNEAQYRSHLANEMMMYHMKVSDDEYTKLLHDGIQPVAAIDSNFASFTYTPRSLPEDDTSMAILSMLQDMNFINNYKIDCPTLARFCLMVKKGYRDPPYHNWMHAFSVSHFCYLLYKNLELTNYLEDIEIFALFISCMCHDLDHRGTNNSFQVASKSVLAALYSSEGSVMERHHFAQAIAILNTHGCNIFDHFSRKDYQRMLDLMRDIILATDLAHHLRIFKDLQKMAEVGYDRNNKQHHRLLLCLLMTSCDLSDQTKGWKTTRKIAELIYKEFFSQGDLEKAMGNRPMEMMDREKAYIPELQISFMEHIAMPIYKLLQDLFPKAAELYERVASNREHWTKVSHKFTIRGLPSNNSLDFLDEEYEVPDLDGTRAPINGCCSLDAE
T7 sequence (Q14432 whole entry): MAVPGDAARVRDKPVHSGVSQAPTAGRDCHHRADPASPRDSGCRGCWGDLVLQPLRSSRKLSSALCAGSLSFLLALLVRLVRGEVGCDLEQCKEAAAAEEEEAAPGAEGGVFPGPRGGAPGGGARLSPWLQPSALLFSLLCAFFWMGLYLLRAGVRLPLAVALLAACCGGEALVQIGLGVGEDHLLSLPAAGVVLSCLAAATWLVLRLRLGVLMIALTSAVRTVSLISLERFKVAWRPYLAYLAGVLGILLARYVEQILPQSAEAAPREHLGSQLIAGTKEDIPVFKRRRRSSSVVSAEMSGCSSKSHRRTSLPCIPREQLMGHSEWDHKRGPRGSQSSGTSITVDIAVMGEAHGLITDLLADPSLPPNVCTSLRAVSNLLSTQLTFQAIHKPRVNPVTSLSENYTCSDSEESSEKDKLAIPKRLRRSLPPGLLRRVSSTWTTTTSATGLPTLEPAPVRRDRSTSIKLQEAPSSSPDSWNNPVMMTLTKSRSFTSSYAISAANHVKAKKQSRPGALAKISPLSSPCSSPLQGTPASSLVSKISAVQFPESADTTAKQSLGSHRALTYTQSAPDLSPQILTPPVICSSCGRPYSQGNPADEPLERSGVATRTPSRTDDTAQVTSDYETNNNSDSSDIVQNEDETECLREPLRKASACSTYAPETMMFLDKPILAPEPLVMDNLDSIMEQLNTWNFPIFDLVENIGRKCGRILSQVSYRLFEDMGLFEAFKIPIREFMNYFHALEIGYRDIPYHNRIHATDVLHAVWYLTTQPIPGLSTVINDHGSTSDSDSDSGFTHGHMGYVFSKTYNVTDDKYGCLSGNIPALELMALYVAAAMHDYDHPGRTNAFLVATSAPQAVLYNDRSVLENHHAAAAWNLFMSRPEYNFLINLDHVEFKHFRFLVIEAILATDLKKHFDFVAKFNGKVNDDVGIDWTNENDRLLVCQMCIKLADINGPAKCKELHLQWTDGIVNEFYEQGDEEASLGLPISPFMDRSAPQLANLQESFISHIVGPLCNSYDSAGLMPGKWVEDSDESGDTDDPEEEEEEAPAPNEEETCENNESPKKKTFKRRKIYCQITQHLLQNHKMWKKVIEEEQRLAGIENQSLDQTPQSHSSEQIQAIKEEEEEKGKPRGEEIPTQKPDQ

For `COC(=O)N1CC(c2ccc(OC)c(OC3CCCC3)c2)C(C)(C(C)=O)C1` (stereo not drawn), the IC50 [1] is given as roughly 0.002 µM.

In the case of `COC(=O)N1C[C@@H](c2ccc(OC)c(OC3CCCC3)c2)[C@](C)(C(C)=O)C1` (relative stereo) [Comparative Example, trans-3-(3-cyclopentoxy-4-methoxyphenyl)-1-methoxycarbonyl-4-methyl-4-(methylcarbonyl)pyrrolidine, reference compound], the “% TNFα Inhibition” value ([2]; 1 mg/kg i.p.) is reported as 43%, the “% TNFα Inhibition” value ([2]; 10 mg/kg i.p.) is reported as 100% and the “% TNFα Inhibition” value ([2]; 100 mg/kg i.p.) is reported as 100%. The “Sedative Effect” value [3] was “+”.

For `CCOC(=O)c1cc(-c2ccccc2)n(-c2cccc([N+](=O)[O-])c2)c1C` [Example 22, 2-Methyl-1-(3-nitrophenyl)-5-phenyl-1H-pyrrole-3-carboxylic acid ethyl ester], the IC50 [4] was 0.15 µM, the IC50 [5] was 0.15 µM and the IC50 [6] was 35.5 µM. The IC50 [7] was 21 µM, the IC50 [8] was 21.8 µM and the IC50 [9] was 4.5 µM. It also gave an IC50 [10] of 89 µM, an IC50 [11] of 12.5 µM and an IC50 [12] of 10.6 µM. The EC50 [13] was 0.87 µM, the “% TNFα Inhibition” value ([2]; 1 mg/kg i.p.) was 13% and the “% TNFα Inhibition” value ([2]; 10 mg/kg i.p.) was 84%. For the same compound, the “% TNFα Inhibition” value ([2]; 100 mg/kg i.p.) was 100%.

With `CCOC(=O)c1cc(C)n(-c2cccc(N)c2)c1-c1ccccc1` [Example 40, 1-(3-Aminophenyl)-5-methyl-2-phenyl-1H-pyrrole-3-carboxylic acid ethyl ester] the IC50 [4] was 1.29 µM and the EC50 [13] was 6.72 µM.

`CCOC(=O)c1cc(C)n(-c2cccc(Cl)c2Cl)c1-c1ccccc1` [Example 42, 1-(2,3-Dichlorophenyl)-5-methyl-2-phenyl-1H-pyrrole-3-carboxylic acid ethyl ester] showed an IC50 [4] of 1.49 µM and an EC50 [13] of 100 µM.

In the case of `COc1ccc(C2CNC(=O)C2)cc1OC1CCCC1` (stereo not drawn) [Rolipram, reference compound], the “LPS-induced TNFα secretion from human lymphocytes” value ([13]; preliminary experiments) is listed as “inhibit LPS-induced TNFα secretion from human lymphocytes in a dose-dependent fashion” and the IC50 [1] is listed as roughly 0.2 µM.
